# Reference: paper PMC3661926 (Acta Neuropathologica, 2013)
# Like-named read-outs stand apart in the source and are kept apart here.
# Key:
# in vivo = conditions: C57/BL6, mouse; for half-life: ip, 1 mg
# RML scrapie [1] = test: whole plant or invertebrate; type: in vivo, C57BL/6 mice
# RML scrapie [2] = type: in vivo, C57BL/6 mice; conditions: for Median/Mean* Survival Therapy / difference of survival therapy vs control: C57BL/6, RML i.c., 250 mg/kg
# [3] = rat, in vivo, 2000 mg/kg
# [4] = system: rotenone-treated C57Bl/6J mice; conditions: mouse, in vivo
# [5] = system: Salmonella typhimurium strains TA 98, TA 100, TA 102, TA 1535 and TA 1537
# [6] = target: PrP^Sc (RML prion strain) (Mus musculus, UniProt P04925); test: biochemical
# [7] = in vivo
# [8] = system: cultured human peripheral lymphocytes
# [9] = mouse, in vivo, 2000 mg/kg
# physchem = conditions: water
# MPTP-treated mice = conditions: mouse, in vivo
# actin = type: biochemical
# [10] = C57/BL6, mouse, in vivo
# [11] = system: prion strains RML, ME7, 301C, sCJD, vCJD; type: biochemical, mouse and human; conditions: 1 μl of 10 mM compound solution in DMSO
# PrP^Sc (vCJD prions) = PrP^Sc (vCJD prions) (Homo sapiens, UniProt P04156); test: biochemical
# PrP^Sc (RML prion strain), sequence (P04925 23-230 limits assumed): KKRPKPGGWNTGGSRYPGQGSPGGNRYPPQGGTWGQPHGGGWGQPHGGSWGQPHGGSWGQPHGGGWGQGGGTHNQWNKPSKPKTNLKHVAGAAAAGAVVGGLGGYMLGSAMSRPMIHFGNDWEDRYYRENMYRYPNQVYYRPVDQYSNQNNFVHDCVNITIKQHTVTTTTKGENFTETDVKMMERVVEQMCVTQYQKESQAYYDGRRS
smiles,measurement,setting,value
"Brc1cccc(-c2cc(-c3ccc4c(c3)OCO4)n[nH]2)c1 [anle138b, 3-(1,3-benzodioxol-5-yl)-5-(3-bromophenyl)-1H-pyrazole]",Kp,in vivo,~3
same,half-life,in vivo; half-life t½ in brain,2.9 h
same,half-life,in vivo; half-life t½ in serum,2.4 h
same,% inhibition PrP^Sc in vivo (c),"RML scrapie [1]; PrP^Sc level in brain 106 days after i.c. infection, treatment 24 days: 14 days i.p. 0.84 mg, 2 × 5 days oral gavage 1 mg",108%
same,% inhibition PrP^Sc in vivo (b),"RML scrapie [1]; PrP^Sc level in spleen 35 days after i.p. infection, 34 days treatment with 1 mg compound oral in peanut butter",57%
same,"change of PrPSc levels in brain, mixed application scheme","RML scrapie [1]; from 80 dpi: 14 days i.p. 0.84 mg, 2 x 5 days gavage 1 mg, measured at 95 and 106 dpi",decrease in PrPSc levels
same,inhibition in vivo at 1 mg,"RML scrapie [1]; in Mus musculus, po, 2880 h, read-out: % inhibition PrP^Sc in vivo (a)",78%
same,motor performance in prion infected mice,"RML scrapie [2]; 160 d.p.i., arena movement tracking",unimpaired
same,Median/Mean* Survival Therapy,RML scrapie [2]; 0 dpi oral,355 days
same,difference of survival therapy vs control,RML scrapie [2]; 0 dpi oral,175 days
same,Median/Mean* Survival Therapy,RML scrapie [2]; 80 dpi oral,242 days
same,difference of survival therapy vs control,RML scrapie [2]; 80 dpi oral,74 days
same,Median/Mean* Survival Therapy,RML scrapie [2]; 120 dpi oral,224 days
same,difference of survival therapy vs control,RML scrapie [2]; 120 dpi oral,52 days
same,size distribution of PrP^Sc aggregates (sucrose-gradient centrifugation),"RML scrapie [2]; brain homogenates of treated mice, fractions 7–12",strong reduction of high molecular weight species
same,"pyknotic nuclei, cerebellar granule cell layer","RML scrapie [2]; mouse, in vivo",significantly reduced number of pyknotic nuclei
same,time for which weight loss is prevented,RML scrapie [2]; treatment from 80 dpi onwards,~ 100 days
same,time for which further weight loss is inhibited,RML scrapie [2]; treatment from 120 dpi,~ 70 days
same,Median survival,RML scrapie [2]; treatment from day 80 post i.c. infection (5 mg daily oral),"242,5"
same,Median survival,RML scrapie [2]; treatment from day 120 post i.c. infection (5 mg daily oral),"224,0"
same,"acute toxicity, single oral administration",[3],not reveal any signs of toxicity and no mortality
same,1-h stool collection gut motility test,[4],complete rescue of enteric function
same,motor performance (Rotarod),[4],significantly improved motor performance
same,concentration with test item precipitation,[5],≥ 100 µg/plate
same,"cytotoxicity, preliminary test",[5],No signs of cytotoxicity
same,mutagenic effect (revertant colony numbers),[5],No mutagenic effect
same,EC50,[6],7.3 µM
same,inhibition at 10 µM,[6]; read-out: % inhibition PrP^Sc PMCA,84%
same,"metabolites in brain extracts (HPLC, high resolution MS)","[7]; C57/BL6, mouse",did not identify metabolites of anle138b
same,conc. brain,"[7]; mouse, po",34.1 nmol/g
same,"clastogenic activity, conclusion",[8],no indications of mutagenic properties
same,"acute toxicity, single oral administration",[9],did not reveal any signs of toxicity and no mortality
same,solubility,physchem,< 1 µM
same,loss of dopaminergic (TH-positive) neurons in substantia nigra,MPTP-treated mice,significantly ameliorated
same,effect on actin polymerization,actin,do not affect actin polymerization
same,AUC after oral application compared to i.p. application,[10],approximately 50%
same,"inhibitory activity in PMCA, all prion strains tested",[11],strong inhibitory activity in all prion strains tested
same,EC50,PrP^Sc (vCJD prions),7.1 µM
